Consider 15 compounds from patent US20240300980A1, “HETEROCYCLIC COMPOUNDS AS KRAS INHIBITOR, AND PREPARATION THEREFOR AND USE THEREOF IN TREATMENT” (SHANGHAI KECHOW PHARMA, INC., priority 2021, published 2024).

Structures are written as SMILES.

This test deals with AGS cells (KRAS^G12D). Nature of the test: Detection of cell proliferation in vitro by MTT/MTS method (cell activity experiment). Format: cell-based. To be noted: Homo sapiens, AGS, 72 h, AGS cells; MTT/MTS; 3 days of drug treatment; read-out: AGS IC50. In a few lines:
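KRAS G12D AGS cells seeded at 1000 per well, compound added 24 h later, 0.5% final DMSO. Viability read after 3 days of treatment by MTT (solubilised in DMSO) or MTS, 4 h, absorbance 490 nm. IC50 from dose–response curves versus DMSO control.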
A general note: Tetrazolium assays rely on reduction of a dye to a coloured formazan, in cell work by metabolically active cells.
On to `C#Cc1c(F)ccc2cc(O)cc(-c3ccc4c(N5C[C@H]6CC[C@@H](C5)S6)nc(OC[C@@]56CCCN5C[C@H](F)C6)nc4c3F)c12` [Example 158, 4-(4-((1R,5S)-8-thia-3-azabicyclo[3.2.1]octan-3-yl)-8-fluoro-2-(((2R,7aS)-2-fluorotetrahydro-1H-pyrrolizin-7a(5H)-yl)methoxy)quinazolin-7-yl)-5-ethynyl-6-fluoronaphthalen-2-ol], for which the IC50 stood at 0.235 µM.
For the compound `C#Cc1c(F)ccc2cc(O)cc(-c3ncc4c(N5CC6CCC(C5)C6S(=O)(=O)C(F)(F)F)nc(OC[C@@]56CCCN5C[C@H](F)C6)nc4c3F)c12` (stereo partly drawn) [Example 67, 5-ethynyl-6-fluoro-4-(8-fluoro-2-(((2R,7aS)-2-fluorotetrahydro-1H-pyrrolizin-7a(5H)-yl)methoxy)-4-((1R,5S, 8R)-8-((trifluoromethyl)sulfonyl)-3-azabicyclo[3.2.1]octan-3-yl)pyrido[4,3-d]pyrimidin-7-yl)naphthalen-2-ol], the IC50 was > 10 µM.
`CCC1CCc2cc(O)cc(-c3c(F)c4nc(OC[C@@]56CCCN5C[C@H](F)C6)nc(N5C[C@H]6CC[C@@H](C5)N6)c4c4cncn34)c21` (stereo partly drawn) [Example 418, 7-(1-((1R,5S)-3,8-diazabicyclo[3.2.1]octan-3-yl)-5-fluoro-3-(((2R,7aS)-2-fluorotetrahydro-1H-pyrrolizin-7a(5H)-yl)methoxy)imidazo[1′,5′:1,2]pyrido[4,3-d]pyrimidin-6-yl)-1-ethyl-2,3-dihydro-1H-inden-5-ol]: the IC50 stood at 0.075 µM.
For `Oc1cc(-c2cnc3c(N4C[C@H]5CC[C@@H](C4)N5)nc(OC[C@@]45CCCN4C[C@H](F)C5)nc3c2)c2c(F)c(F)ccc2c1` [Example 199, 4-(4-((1R,5S)-3,8-diazabicyclo[3.2.1]octan-3-yl)-2-(((2R,7aS)-2-fluorotetrahydro-1H-pyrrolizin-7a(5H)-yl)methoxy)pyrido[3,2-d]pyrimidin-7-yl)-5,6-difluoronaphthalen-2-ol] the value was > 2.5 µM; for `Oc1cc2c(c(-c3ncc4c(N5C[C@H]6CC[C@@H](C5)N6)nc(OC[C@@]56CCCN5C[C@H](F)C6)nc4c3F)c1)C1CC1CC2` (stereo partly drawn) [Example 246, 7-(4-((1R,5S)-3,8-diazabicyclo[3.2.1]octan-3-yl)-8-fluoro-2-(((2R,7aS)-2-fluorotetrahydro-1H-pyrrolizin-7a(5H)-yl)methoxy)pyrido[4,3-d]pyrimidin-7-yl)-1a,2,3,7b-tetrahydro-1H-cyclopropa[a]naphthalen-5-ol], 0.109 µM; for `[O-][S+]1C2CCC1CN(c1nc(OC[C@@]34CCCN3C[C@H](F)C4)nc3c(F)c(-c4cc(O)cc5cccc(F)c45)ccc13)C2` (stereo partly drawn) [Example 168, (1R,5S,8R)-3-(8-fluoro-7-(8-fluoro-3-hydroxynaphthalen-1-yl)-2-(((2R,7aS)-2-fluorotetrahydro-1H-pyrrolizin-7a(5H)-yl)methoxy)quinazolin-4-yl)-8-thia-3-azabicyclo[3.2.1]octane 8-oxide], > 2.5 µM.
Turning to `Oc1cc(-c2c(-c3cn[nH]c3)cc3c(N4C[C@H]5CC[C@@H](C4)N5)nc(OC[C@@]45CCCN4C[C@H](F)C5)nc3c2F)c2ccccc2c1` [Example 377, 4-(4-((1R,5S)-3,8-diazabicyclo[3.2.1]octan-3-yl)-8-fluoro-2-(((2R,7aS)-2-fluorotetrahydro-1H-pyrrolizin-7a(5H)-yl)methoxy)-6-(1H-pyrazol-4-yl)quinazolin-7-yl)naphthalen-2-ol], the IC50 was found to be 0.12 µM.
Turning to `C#Cc1c(F)ccc2cc(O)cc(-c3ccc4c(N5C[C@H]6CC[C@@H](C5)N6)nc(OCC5(CN6CCCC6)CC5)nc4c3F)c12` [Example 99, 4-(4-((1R,5S)-3,8-diazabicyclo[3.2.1]octan-3-yl)-8-fluoro-2-((1-(pyrrolidin-1-ylmethyl)cyclopropyl)methoxy)quinazolin-7-yl)-5-ethynyl-6-fluoronaphthalen-2-ol], the IC50 came out at 0.0088 µM.
Take `Oc1cc(-c2c3c(c4c(N5C[C@H]6CC[C@@H](C5)N6)nc(OC[C@@]56CCCN5C[C@H](F)C6)nc4c2F)CCC3)c2c(F)c(F)ccc2c1` [Example 380, 4-(1-((1R,5S)-3,8-diazabicyclo[3.2.1]octan-3-yl)-5-fluoro-3-(((2R,7aS)-2-fluorotetrahydro-1H-pyrrolizin-7a(5H)-yl)methoxy)-8,9-dihydro-7H-cyclopenta[f]quinazolin-6-yl)-5,6-difluoronaphthalen-2-ol]: the IC50 stood at 0.095 µM.
Turning to `CCC1CCc2cc(O)cc(-c3ncc4c(NCC5(N(C)C)CCC5)nc(OC[C@@]56CCCN5C[C@H](F)C6)nc4c3F)c21` (stereo partly drawn) [Example 423, 7-(4-(((1-(dimethylamino)cyclobutyl)methyl)amino)-8-fluoro-2-(((2R,7aS)-2-fluorotetrahydro-1H-pyrrolizin-7a(5H)-yl)methoxy)pyrido[4,3-d]pyrimidin-7-yl)-1-ethyl-2,3-dihydro-1H-inden-5-ol], the IC50 worked out at 0.055 µM.
For `C#Cc1c(F)ccc2cc(O)cc(-c3ccc4c(N5CCC6(CCCN6)CC5)nc(OC[C@@]56CCCN5C[C@H](F)C6)nc4c3F)c12` [Example 90, 5-ethynyl-6-fluoro-4-(8-fluoro-2-(((2R,7aS)-2-fluorotetrahydro-1H-pyrrolizin-7a(5H)-yl)methoxy)-4-(1,8-diazaspiro[4,5]decan-8-yl)quinazolin-7-yl)naphthalen-2-ol], the IC50 amounted to 8.92 µM.
For `C#Cc1c(F)ccc2cc(O)cc(-c3ncc4c(N5C[C@H]6CC[C@@H](C5)C6(F)F)nc(OC[C@@]56CCCN5C[C@H](F)C6)nc4c3F)c12` [Example 30, 4-(4-((1R,5S)-8,8-difluoro-3-azabicyclo[3.2.1]octan-3-yl)-8-fluoro-2-(((2R,7aS)-2-fluorotetrahydro-1H-pyrrolizin-7a(5H)-yl)methoxy)pyrido[4,3-d]pyrimidin-7-yl)-5-ethynyl-6-fluoronaphthalen-2-ol] the value was > 2.5 µM; for `CCc1c(F)ccc2cc(O)cc(-c3ccc4c(N5C[C@H]6CC[C@@H](C5)N6)nc(OC[C@]56CCCN5[C@@H](COC(=O)N(C)C)CC6)nc4n3)c12` [Example 146, ((3R,7aR)-7a-(((4-((1R, 5S)-3,8-diazabicyclo [3.2.1]octan-3-yl)-7-(8-ethyl-7-fluoro-3-hydroxynaphthalen-1-yl)pyrido[2,3-d]pyrimidin-2-yl)oxy)methyl)hexahydro-1H-pyrrolizin-3-yl)methyl dimethylcarbamate], > 2.5 µM.
For `C#Cc1c(F)ccc2cc(O)cc(-c3c(F)c4nc(OC[C@@]56CCCN5C[C@H](F)C6)nc(N5C[C@H]6CC[C@@H](C5)N6)c4c4cncn34)c12` [Example 398, 4-(1-((1R,5S)-3,8-diazabicyclo[3.2.1]octan-3-yl)-5-fluoro-3-(((2R,7aS)-2-fluorotetrahydro-1H-pyrrolizin-7a(5H)-yl)methoxy)imidazo[1′,5′:1,2]pyrido[4,3-d]pyrimidin-6-yl)-5-ethynyl-6-fluoronaphthalen-2-ol] the value was 0.05 µM; for `N#Cc1c(OC[C@@]23CCCN2C[C@H](F)C3)nc2cc(-c3cccc4ccc(F)c(Cl)c34)ccc2c1N1C[C@H]2CC[C@@H](C1)N2` [Example 170, 4-((1R,5S)-3,8-diazabicyclo[3.2.1]octan-3-yl)-7-(8-chloro-7-fluoronaphthalen-1-yl)-2-(((2R,7aS)-2-fluorotetrahydro-1H-pyrrolizin-7a(5H)-yl)methoxy)quinoline-3-carbonitrile], 1.04 µM.

In general, IC50 refers to the concentration that gives 50% inhibition.
